The subject of assay [1] is Bacillus subtilis. Kind of assay: Antibacterial activity against Bacillus subtilis MTCC 441 after 24 hrs by agar well diffusion method. The format is functional. The conditions noted are these: MTCC 441, 24 h. (In general: A growth-free zone around the sample is the usual read-out of agar diffusion tests.)
Assay [2] relates to Staphylococcus aureus. Kind of assay: Antibacterial activity against Staphylococcus aureus MTCC 96 after 24 hrs by agar well diffusion method. The format is functional. The conditions noted are these: MTCC 96, 24 h.
Assay [3] concerns Aspergillus flavus. Kind of assay: Antifungal activity against Aspergillus flavus MTCC 277 after 2 to 3 days by agar well diffusion method. The format is functional.
In assay [4] the test system is Fusarium solani. The assay is described as follows: Antifungal activity against Fusarium solani MTCC 350 up to 200 ug/mL after 2 to 3 days by agar well diffusion method. The format is functional, organism-based.
In assay [5] the test system is Aspergillus niger. Kind of assay: Antifungal activity against Aspergillus niger MTCC 281 after 2 to 3 days by agar well diffusion method. The format is functional.
Assay [6] deals with THP-1. The assay is described as follows: Antiinflammatory activity in human THP1 cells assessed as inhibition of LPS-stimulated TNFalpha production at 10 uM incubated for 30 mins prior to LPS-challenge measured 24 hrs post LPS challenge by ELISA. The format is functional. A general note: ELISA stands for enzyme-linked immunosorbent assay.
Assay [7] deals with Salmonella typhimurium. Kind of assay: Antibacterial activity against Salmonella typhimurium MTCC 98 after 24 hrs by agar well diffusion method. It is filed as functional, Salmonella enterica subsp. enterica serovar Typhimurium. To be noted: Salmonella enterica, MTCC 98, 24 h.
Assay [8] concerns Candida albicans. The assay is described as follows: Antifungal activity against Candida albicans MTCC 227 after 2 to 3 days by agar well diffusion method. The format is functional.
In assay [9] the test system is THP-1. Kind of assay: Antiinflammatory activity in human THP1 cells assessed as inhibition of LPS-stimulated IL-6 production at 10 uM incubated for 30 mins prior to LPS-challenge measured 24 hrs post LPS-challenge by ELISA. It is filed as functional.
For a further assay, the system named is Escherichia coli. The assay is described as follows: Antibacterial activity against Escherichia coli MTCC 443 after 24 hrs by agar well diffusion method. It is filed as functional. To be noted: MTCC 443, 24 h.
Assay [10] deals with Staphylococcus aureus. Kind of assay: Antibacterial activity against Staphylococcus aureus MTCC 96 up to 200 ug/mL after 24 hrs by agar well diffusion method. The format is functional, organism-based.
The test system of assay [11] is Candida albicans. The assay is described as follows: Antifungal activity against Candida albicans MTCC 227 up to 200 ug/mL after 2 to 3 days by agar well diffusion method. The format is functional, organism-based.
Assay [12] has as its system Bacillus subtilis. The assay is described as follows: Antibacterial activity against Bacillus subtilis MTCC 441 up to 200 ug/mL after 24 hrs by agar well diffusion method. The format is functional, organism-based.
For assay [13], the system named is Salmonella typhimurium. Kind of assay: Antibacterial activity against Salmonella typhimurium MTCC 98 up to 200 ug/mL after 24 hrs by agar well diffusion method. It is filed as functional, organism-based. The conditions noted are these: Salmonella enterica subsp. enterica serovar Typhimurium.
For assay [14], the system named is Aspergillus niger. The assay is described as follows: Antifungal activity against Aspergillus niger MTCC 281 up to 200 ug/mL after 2 to 3 days by agar well diffusion method. The format is functional, organism-based.
Assay [15] has as its system Aspergillus flavus. The assay is described as follows: Antifungal activity against Aspergillus flavus MTCC 277 up to 200 ug/mL after 2 to 3 days by agar well diffusion method. The format is functional, organism-based.
The test system of assay [16] is Fusarium solani. The assay is described as follows: Antifungal activity against Fusarium solani MTCC 350 after 2 to 3 days by agar well diffusion method. It is filed as functional.

Eight compounds from ChEMBL document CHEMBL2157914, “Synthesis, anti-inflammatory and antimicrobial evaluation of novel 1-acetyl-3,5-diaryl-4,5-dihydro (1H) pyrazole derivatives bearing urea, thiourea and sulfonamide moieties” (2012) can be followed below.

In brackets after ≈: the same amount, converted by molar mass. Activity calls are given as the source filed them.

The MIC is the smallest concentration in the dilution series that meets the test's criterion for growth inhibition. A high value points to a need for much substance. By inhibition is commonly meant the percentage by which the read-out fell short of the control. Turning to `COc1ccc(C2=NN(C(C)=O)C(c3ccc([N+](=O)[O-])cc3)C2)cc1OC` (stereo not given), the MIC is 50 µg/mL (≈ 135 µM) with Bacillus subtilis [1]; 90 µg/mL (≈ 244 µM) with Staphylococcus aureus [2]; 90 µg/mL (≈ 244 µM) against Aspergillus flavus [3]; 90 µg/mL (≈ 244 µM) against Aspergillus niger [5]; 90 µg/mL (≈ 244 µM) with Salmonella typhimurium [7]; 90 µg/mL (≈ 244 µM) in the assay with Candida albicans [8]. Further, the MIC in the assay on Escherichia coli is 65 µg/mL (≈ 176 µM). The result in the assay on Fusarium solani [4] was inactive. Also, the inhibition at 10 µM with THP-1 [6] and with THP-1 [9] was 0% in each case.

For the compound `COc1ccc(C2=NN(C(C)=O)C(c3ccc(NC(=O)Nc4cc(F)ccc4C)cc3)C2)cc1OC` (stereo not given), the result in the assay on Staphylococcus aureus [10], in the assay with Candida albicans [11], in the assay on Bacillus subtilis [12], in the assay with Fusarium solani [4], in the assay on Salmonella typhimurium [13] and in the assay with Aspergillus niger [14] was inactive. For the same compound, the result with Aspergillus flavus [15] was inactive. Also, the inhibition at 10 µM amounted to 28% with THP-1 [6] and 31% with THP-1 [9]. The same compound yielded an MIC with Escherichia coli of 90 µg/mL (≈ 183 µM).

As to `COc1ccc(C(=O)/C=C/c2ccc([N+](=O)[O-])cc2)cc1OC`, the outcome in the assay with Staphylococcus aureus [10], in the assay on Fusarium solani [4], in the assay on Aspergillus niger [14] and with Aspergillus flavus [15] was inactive. Further, the MIC turned out to be 90 µg/mL (≈ 287 µM) against Bacillus subtilis [1], 90 µg/mL (≈ 287 µM) with Salmonella typhimurium [7], 90 µg/mL (≈ 287 µM) in the assay on Candida albicans [8] and 80 µg/mL (≈ 255 µM) against Escherichia coli. The inhibition at 10 µM with THP-1 [6] and in the assay on THP-1 [9] was 0% in each case.

Turning to `COc1ccccc1NC(=S)Nc1ccc(C2CC(c3ccc(OC)c(OC)c3)=NN2C(C)=O)cc1` (stereo not given), the result with Staphylococcus aureus [10], in the assay with Bacillus subtilis [12], in the assay on Salmonella typhimurium [13], in the assay with Aspergillus niger [14] and in the assay on Aspergillus flavus [15] was inactive. The MIC against Fusarium solani [16] is 75 µg/mL (≈ 149 µM); in the assay with Candida albicans [8], 90 µg/mL (≈ 178 µM); in the assay with Escherichia coli it was 90 µg/mL (≈ 178 µM). Also, the inhibition at 10 µM in the assay on THP-1 [6] and in the assay on THP-1 [9] was 0% each time.

In the case of `COc1ccc(C2=NN(C(C)=O)C(c3ccc(NS(=O)(=O)c4ccc(OC)c(OC)c4)cc3)C2)cc1OC` (stereo not given), the outcome with Staphylococcus aureus [10], with Candida albicans [11], in the assay with Aspergillus niger [14] and with Aspergillus flavus [15] was inactive. The MIC against Bacillus subtilis [1], against Fusarium solani [16], against Salmonella typhimurium [7] and in the assay with Escherichia coli was 90 µg/mL (≈ 167 µM) in each case. For the same compound, the inhibition at 10 µM with THP-1 [6] and in the assay with THP-1 [9] was 0% each time.

For the compound `COc1ccc(C2=NN(C(C)=O)C(c3ccc(NC(=O)Nc4cccc(Cl)c4F)cc3)C2)cc1OC` (stereo not given), the MIC against Bacillus subtilis [1], against Staphylococcus aureus [2], against Salmonella typhimurium [7], with Candida albicans [8] and in the assay on Escherichia coli was 90 µg/mL (≈ 176 µM) throughout. The result in the assay with Fusarium solani [4], with Aspergillus niger [14] and in the assay with Aspergillus flavus [15] was inactive. Further, the inhibition at 10 µM in the assay with THP-1 [6] was 61%; in the assay with THP-1 [9] it was 76%.

For `COc1ccc(C2=NN(C(C)=O)C(c3ccc(NC(=S)Nc4ccccc4F)cc3)C2)cc1OC` (stereo not given), the MIC worked out at 80 µg/mL (≈ 162 µM) against Bacillus subtilis [1]; 80 µg/mL (≈ 162 µM) in the assay with Staphylococcus aureus [2]; 90 µg/mL (≈ 183 µM) against Aspergillus flavus [3]; 90 µg/mL (≈ 183 µM) against Fusarium solani [16]; 90 µg/mL (≈ 183 µM) with Salmonella typhimurium [7]; 80 µg/mL (≈ 162 µM) in the assay on Candida albicans [8]. The compound further had an MIC in the assay with Escherichia coli of 55 µg/mL (≈ 112 µM). Further, the result in the assay with Aspergillus niger [14] was inactive. Moreover, the inhibition at 10 µM with THP-1 [6] is 78%; with THP-1 [9], 84%.

On to `COc1ccc(C2=NN(C(C)=O)C(c3ccc(NC(=S)Nc4ccc(F)cc4)cc3)C2)cc1OC` (stereo not given), for which the outcome in the assay on Candida albicans [11], in the assay with Bacillus subtilis [12], in the assay with Salmonella typhimurium [13], in the assay with Aspergillus niger [14] and in the assay with Aspergillus flavus [15] was inactive. In addition, the results for the MIC in the assay on Staphylococcus aureus [2], in the assay on Fusarium solani [16] and against Escherichia coli were 80 µg/mL (≈ 162 µM), 90 µg/mL (≈ 183 µM) and 80 µg/mL (≈ 162 µM), respectively. Further, the inhibition at 10 µM in the assay on THP-1 [6] was determined as 3%; with THP-1 [9], 10%.
